The values that follow come from patent US20220047530A1, “USE OF HORDENINE IN PREPARING DRUG FOR TREATING HYPOPHYSOMA” (Wuhan Third Hospital, priority 2019, published 2022).

One data set has as its system SD rats. The data set is described as follows: Toxicity prediction (pre-experiment). Type of data set: in vivo. The note with it: gavage 0.07 g/kg twice a day. From the text:
5 SPF-grade SD rats are randomly selected for toxicity prediction. Another 30 SPF-grade SD rats are randomly selected, wherein half are males, and half are females. After the purchase of the animals, the animals are adaptively fed for one week. The rats are fasted at the night before the experiment (without stopping the provision of water). During the experiment, the animals are randomly divided into 3 groups, which are the control group, the low-dose hordenine treatment group (0.035 g/kg), and the high-dose hordenine treatment group (0.07 g/kg).
7 mg/ml of hordenine solution (the theoretical maximum solubility of hordenine is 7 mg/ml) is used for pre-experiment to observe the survival of rats. 5 SPF-grade SD rats are randomly selected, and hordenine is administered by gavage at the maximum dose of 0.07 g/kg, twice a day, with an interval of no less than 4 hours, 1 day of administration, and 7 days of observation. The poisoning, death, and amounts of food and water consumed by the rats are daily observed and recorded. For rats that die during the experiment, they are immediately dissected to find the cause of death. After the completion of the experiment, all dying rats will be dissected to remove the heart, liver, spleen, lung and kidney for visual observation, and pathological sections of each organ are made to roughly determine the target organ of toxicity.

A further data set concerns prolactin (PRL). The data set is described as follows: ELISA of prolactin content in serum of rats with prolactinoma and adrenocorticotrophic hormone adenoma. Type of data set: in vivo, F344 rats (Rattus norvegicus). As to conditions: oral gavage 40, 20, 10 mg/kg once a day for 30 days; vs model group. The source says: (§1) 70 rats of the prolactinoma and adrenocorticotrophic hormone adenoma model as established in Step 1.1 “Establishment of Rattus norvegicus pituitary tumor model” and normal rats of the control group are used as samples.
(§2) The 70 F344 rats are randomly divided into the normal group, operation group, model group, positive drug group (bromocriptine positive drug group), high-dose hordenine group, medium-dose hordenine group, and low-dose hordenine group, […]. Except rats in the normal group and the operation group, rats in the other groups are all made into rats with prolactinoma and adrenocorticotrophic hormone adenoma.
Rats in the positive drug group are given an aqueous bromocriptine solution by gavage at a dose of 0.45 mg/kg. Rats in the high-, medium- and low-dose groups of an aqueous solution of hordenine are given an aqueous solution of hordenine by oral gavage at a dose of 40 mg/kg, 20 mg/kg, and 10 mg/kg, respectively. Rats in the normal group and the model group are given the same dose of distilled water. The administration is performed once a day for 30 days, and during this period of time, the rats are weighed every five days and the changes in body weight are recorded. […]
The contents of PRL and IL-β in the serum of rats in each group are determined by ELISA according to the procedures in the ELISA kit instructions.
In general terms: An ELISA detects its analyte on a solid surface through an enzyme-linked reagent.

The next data set has as its system TLR4/NF-κB/MAPK pathway. The data set is described as follows: Western blot of pituitary protein expression in rats with prolactinoma and adrenocorticotrophic hormone adenoma. The note with it: once a day for 30 days by gavage; vs model group. The format is in vivo, F344 rats (Rattus norvegicus).
From the text: as §1, §2
Rats in the positive drug group are given an aqueous bromocriptine solution by gavage at a dose of 0.45 mg/kg. Rats in the high-, medium- and low-dose groups of an aqueous solution of hordenine are given an aqueous solution of hordenine by oral gavage at a dose of 40 mg/kg, 20 mg/kg, and 10 mg/kg, respectively. Rats in the normal group and the model group are given the same dose of distilled water. The administration is performed once a day for 30 days, and during this period of time, the rats are weighed every five days and the changes in body weight are recorded.
Tissue extraction: The animals in each group are anesthetized, and the pituitary glands are removed as described in Section 2.2.2 of Part I, which are kept at −80° C. for later use.
The protein expression of TLR4/NF-κB/MAPK pathway in rats in the treatment groups after the administration of hordenine is determined by Western blotting detection. The effect of hordenine on the expression of various proteins in the pituitary glands of rats with prolactinoma and adrenocorticotrophic hormone adenoma as determined by Western blot detection on is shown in FIG. 16.

“Also recorded” adds a separate entry of the source.

Turning to `CN(C)CCc1ccc(O)cc1` [hordenine, 4-(2-dimethylaminoethyl)phenol], the “time to recovery of reduced activity after treatment” value in the data set on SD rats (1 day) is listed as “about 2 hours”. In addition, in the data set with SD rats (1 day of administration, 7 days of observation), the “death of rats within 7 days” value is “no rats die”. The general clinical signs entry in the data set with SD rats (1 day, 7 days of observation) was “no other adverse reactions”. Further, the “expression of PRL in serum (ELISA)” value in the data set on prolactin (PRL) was “significantly inhibit”. For the same molecule, in the data set on TLR4/NF-κB/MAPK pathway, the “expression of ATCH in pituitary glands (Western blot)” value is on record as “significantly reduce”, the “expression of MAPK12 in pituitary glands (Western blot)” value is “significantly reduce; also recorded: significantly down-regulated”, the “expression of NF-kB protein in pituitary glands” value is given as “significantly down-regulated” and the “expression of PRL in pituitary glands (Western blot)” value is recorded as “significantly reduce”. In addition, in the data set on TLR4/NF-κB/MAPK pathway, the “expression of STAT3 protein in pituitary glands” value is on record as “significantly down-regulated”, the “expression of TLR4 in pituitary glands (Western blot)” value is “significantly reduce; also recorded: significantly down-regulated”, the “expression of TNF-α in pituitary glands (Western blot)” value is recorded as “significantly reduce” and the “expression of caspase-1 protein in pituitary glands” value is “significantly down-regulated”.
